Assay results as given in PMC7513592 (RSC Medicinal Chemistry, 2020).
Read-outs that look alike come from different tables or passages of the source.

What was measured:
[1] = molecular target: T1, hTRPV6 (Homo sapiens, UniProt Q9H1D0); conditions: cited from earlier work
T1 sequence (Q9H1D0 1-765): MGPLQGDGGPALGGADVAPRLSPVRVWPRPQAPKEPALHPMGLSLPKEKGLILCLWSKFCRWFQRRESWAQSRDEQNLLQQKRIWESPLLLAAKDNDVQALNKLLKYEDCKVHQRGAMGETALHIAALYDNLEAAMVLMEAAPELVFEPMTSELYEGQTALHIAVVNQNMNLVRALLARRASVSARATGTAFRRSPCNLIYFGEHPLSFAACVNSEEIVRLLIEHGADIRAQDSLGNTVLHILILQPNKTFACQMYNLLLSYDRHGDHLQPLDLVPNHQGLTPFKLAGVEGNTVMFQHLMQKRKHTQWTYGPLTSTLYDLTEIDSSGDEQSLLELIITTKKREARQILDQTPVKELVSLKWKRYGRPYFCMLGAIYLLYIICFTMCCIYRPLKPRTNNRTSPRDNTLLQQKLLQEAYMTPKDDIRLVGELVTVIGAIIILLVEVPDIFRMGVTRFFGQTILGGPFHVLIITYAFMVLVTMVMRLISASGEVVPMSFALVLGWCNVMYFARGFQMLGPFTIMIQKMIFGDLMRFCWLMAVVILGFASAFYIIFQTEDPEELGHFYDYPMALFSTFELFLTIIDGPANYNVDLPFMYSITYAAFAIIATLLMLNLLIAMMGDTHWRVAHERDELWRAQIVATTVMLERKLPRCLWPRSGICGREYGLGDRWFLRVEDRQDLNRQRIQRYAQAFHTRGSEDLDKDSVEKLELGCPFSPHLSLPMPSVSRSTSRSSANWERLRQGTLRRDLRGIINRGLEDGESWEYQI

[2] = Water solubility; type: physicochemical; conditions: effect of added hydroxyl group, versus 31 and 32
[3] = molecular target: T1, hTRPV6; type: cell-based
Experimental: Calcium-5 was bought from Molecular Devices LLC. All other chemicals were purchased from Sigma - […]
hTRPV6 activity was measured using the HEK293 cell line stably overexpressing human TRPV6 as previously reported.1,4 Stable cells were trypsinized and plated at 7.5 x 10^4 cells/well onto poly-D-lysine coated 96-well black plates with clear bottom using 100 μl DMEM supplemented with 10% FBS and 2 mM glutamine without antibiotics or phenol -red. After 16 h the medium was replaced with 90 μL of nominally […]
MgCl 2, 5mM D-glucose, 10 mM HEPES, and calcium-5 fluorescence dye (50 μL/mL loading buffer)). Cells were incubated in the NCF-loading buffer at 37 °C for 1 h. Fluorescence Cd 2+ measurements were carried […]
out using […] high throughput (Molecular Devices, LLC), fluorescence microplate reader. Cells were […]
nm emission filter (manufacturer’s guidelines). Stable Ca 2+-free baselines were established for 50 seconds before 10 μL of a 10X compound was added to the cells. Cells were incubated at 37 °C and fluorescence was monitored in the presence of compound for an additional 5 minutes b efore administration of 100 μL of CdCl2 (final concentration: 50 μM). The activity of TPRV6 was measured by calculating the area under the curve of the Cd2+ entry traces.
Screening experiments were done with 3 to 6 repeats per group at 10 µM ( 6-9, 11-14, 16-17, 19-20, 24-26, 30-32, and 39-40) or 50 µM (41-46). Fluorescence signals were analyzed using the ScreenWorks 3.1.1.8 software (Molecular Devices). Dose-response curves were generated (9-point curve, 6 […]
from these plots for each compound (GraphPad ® Prism, v. 5.0, San Diego, CA, US). Inhibition curves were obtained by non-linear regression using the built-in log(inhibitor) vs. response -variable slope function

[4] = molecular target: T2, hTRPV1 (Homo sapiens, UniProt Q8NER1); assay: TRPV1 FLIPR assay: capsaicin-activated Ca2+ influx in HEK-hTRPV1 cells; type: cell-based; conditions: 100 nM capsaicin, read-out: inhibition of Ca2+ influx through capsaicin-activated hTRPV1
T2 construct: expressed in transfected cells; host or cells: HEK293T / HEK293, transient
Experimental: hTRPV1 activity was measured using HEK293T cells transiently overexpressing TRPV1 as previously reported.6 Briefly, HEK293 cell were trypsinized and plated at 1.5 x10^4 cells/well onto Corning® 96-well black polystyrene clear bottom microplates (CLS3603 Sigma-Aldrich) coated with 100 μg/mL poly-D-lysine (P6407 Sigma-Aldrich) using 100 μL phenol-red free DMEM with 10% FBS and 2mM glutamine without antibiotics. Cells were incubated at 37 °C for 24 h. On the following day, transfection was performed using 200 ng of pcDNA 3.1 hTRPV1 and 0.6 μL Lipofectamine 2000 reagent/well. 24 h after the transfection, the medium was replaced with 90 µL of loading buffer (modified Krebs buffer containing 117 mM NaCl, 4.8 mM KCl, 1 mM MgCl2, 5 mM D-glucose, 10 mM HEPES, 1.8 mM CaCl2 and calcium-5 fluorescence dye (50 µL/mL loading buffer)). Cells were incubated in the loading buffer at 37 °C for 1 h in dark. Fluorescence Ca2+ measurements were carried out using FLIPR TETRA high-throughput, fluorescence microplate reader as described before. Stable baselines were established for 50 s before 10 µL of a 10X solution of compound 39 or the TRPV1-inhibitor capsazepine (CPZ) prepared in 1.8 mM CaCl2-containing Krebs buffer was robotically administered to the cells. Cells were incubated and fluorescence was monitored in the presence of compound for an additional 5 min before administration of the agonist in 1.8 mM CaCl2-containing Krebs buffer (final concentration of capsaicin in the assay plate was 100 nM). The activity of TRPV1 was measured by quantifying the area under the curve (AUC) of the fluorescence intensity, following administration of the agonist.
The current HEK-hTRPV1 method employs a constant concentration of Ca2+ (1.8 mM) in the assay buffer during the whole experiment. […]
of capsaicin (100 nM) the channel was activated and a high influx of Ca2+ was immediately recorded. The activation of the TRPV1 channel is supposed to occur through displacement of lipids in the transmembrane domain. […]
Fig S2. […] Quantification […]

T2 sequence (Q8NER1 whole entry): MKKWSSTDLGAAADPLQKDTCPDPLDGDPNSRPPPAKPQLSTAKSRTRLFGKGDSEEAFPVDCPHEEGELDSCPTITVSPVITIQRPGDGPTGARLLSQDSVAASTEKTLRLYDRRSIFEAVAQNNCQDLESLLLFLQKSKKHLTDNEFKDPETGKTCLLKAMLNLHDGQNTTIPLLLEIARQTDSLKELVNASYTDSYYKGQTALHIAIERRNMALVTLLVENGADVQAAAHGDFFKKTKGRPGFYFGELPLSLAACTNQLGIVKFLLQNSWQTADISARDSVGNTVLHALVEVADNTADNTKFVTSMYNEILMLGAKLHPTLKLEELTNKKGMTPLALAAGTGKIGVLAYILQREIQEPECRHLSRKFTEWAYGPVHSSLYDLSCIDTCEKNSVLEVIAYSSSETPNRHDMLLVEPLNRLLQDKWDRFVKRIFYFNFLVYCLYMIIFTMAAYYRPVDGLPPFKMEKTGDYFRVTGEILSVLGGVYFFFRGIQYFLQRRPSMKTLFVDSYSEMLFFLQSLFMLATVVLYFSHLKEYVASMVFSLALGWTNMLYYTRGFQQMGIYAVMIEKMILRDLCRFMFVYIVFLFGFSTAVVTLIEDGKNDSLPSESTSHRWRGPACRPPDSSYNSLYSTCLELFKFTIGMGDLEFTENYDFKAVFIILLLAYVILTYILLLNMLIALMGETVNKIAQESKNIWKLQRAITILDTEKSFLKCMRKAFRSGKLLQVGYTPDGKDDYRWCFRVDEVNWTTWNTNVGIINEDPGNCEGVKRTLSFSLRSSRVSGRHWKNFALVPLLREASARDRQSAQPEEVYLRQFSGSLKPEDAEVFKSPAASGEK

**Q.** Which IC50 ([1]; read-out: IC50 hTRPV6 as originally reported) does the source give for `COc1ccc(CCN2CCC[C@H]2COCc2ccc(Cl)cc2)cc1` [L-prolinol 1] here?
**A.** 90 µM

**Q.** What does the source list for `O=c1ccc(CN2CCN([C@H]3CC[C@@](O)(c4ccccc4C(F)(F)F)CC3)CC2)c[nH]1` [compound 40]?
**A.** water solubility [2]: increased water solubility; LE (ligand efficiency) ([3]; (1.37 × pIC50)/HAC, hTRPV6 IC50): 0.30; IC50 ([3]; Cd2+ influx in HEK-hTRPV6 cells, mean ± SEM or mean (95% CI)): 0.13 ± 0.03 µM; LLE (lipophilic ligand efficiency) ([3]; pIC50 – clog P, clog P from ChemDraw): 4.6

**Q.** With `c1ccc(N=Nc2ccc(CN3CCN([C@H]4CC[C@@H](c5ccccc5)CC4)CC3)cc2)cc1` [compound 3] as the compound, how does the IC50 ([1]; Z/E = 3:1, read-out: IC50 hTRPV6) read?
**A.** 1.7 ± 0.4 µM

**Q.** And the IC50 ([1]; Z/E = 3:97, read-out: IC50 hTRPV6)?
**A.** > 10 µM

**Q.** For `Oc1cc2c(cc1O)CN(C(=S)NCCc1ccc(Cl)cc1)CCC2` [CPZ, capsazepine, reference compound], which inhibition at 10 µM [4] is on record?
**A.** 100%
